Assay results published in article PMC5667506, “Potent and selective inhibition of SH3 domains with dirhodium metalloinhibitors” (Chemical Science, 2015).
pKd: −log10 of the molar value. Rh2(OAc)3 = dirhodium(II) triacetate, bound to the side-chain carboxylate

Key:
[1] = molecular target: T1, Lyn SH3 H78A mutant (Homo sapiens, UniProt P07948, H78A); test: Binding to Lyn SH3 H78A mutant; details: read-out: affinity
T1 construct: The lyn SH3 domain was amplified by PCR using Phusion DNA polymerase; GST (N, cleaved yes); made in house; host or cells: E. coli BL21 (DE3)
T1 sequence (P07948 63-123 H78A limits assumed): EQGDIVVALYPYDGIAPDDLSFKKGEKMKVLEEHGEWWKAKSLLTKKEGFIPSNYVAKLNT
Experimental: The remarkable 6 nM affinity, far stronger than that of any reported non-protein ligand for SH3 domains, led us to study the structural basis of the observed affinity. […] The H78A and H96A double mutant binds much more weakly (>5 μM). […] That the majority of the stabilization energy comes from the first histidine coordination is consistent with the negative cooperativity generally seen for axial coordination to rhodium(II): a second coordination in solution is roughly two orders of magnitude less favorable.[40]–[43]
Abl SH3 domain preparation. The abl SH3 domain was amplified by PCR using Phusion DNA polymerase (Finnzymes). The
reactions were performed following manufacture's protocol with Phusion HF buffer and 5% DMSO. Primers were designed as
follows: 5'-[…]-3' (BamHI site underlined) and a reverse primer, 5'-
-3' (EcoRI site underlined). The resultant product was digested with
BamHI and EcoRI and subcloned into BamHI-EcoRI sites of pGex-KTO. Confirmed PCR fidelity by sequencing.
Hck SH3 domain preparation. The hck SH3 domain was amplified by PCR using Phusion DNA polymerase (Finnzymes). The
Lyn SH3 domain preparation. The lyn SH3 domain was amplified by PCR using Phusion DNA polymerase (Finnzymes). The […]
assessed by SDS-PAGE using 12% Bis-Tris gels (Invitrogen). […]
concentrated, and aliquoted for storage at –80 °C. Concentration was determined using the absorbance at 280 nm (NanoDrop, […]

[2] = molecular target: T2, Src SH3 domain (Homo sapiens, UniProt P12931); test: ITC binding to Src SH3 domain
T2 construct: fyn, yes, lck, and src SH3 protein domains were prepared following published procedures; made in house
Experimental: All chemical reagents were purchased from Sigma-Aldrich and were used without further purification.
Peptide synthesis. All peptides were synthesized manually or with an AAPPTEC APEX 396 Automated Multipeptide Synthesizer using standard solid-phase Fmoc protocols.1,2 Peptides were prepared as C-terminal amides using Rink amide MBHA resin (AAPPTEC) and were acetylated at the N-terminus prior to cleavage from the resin. Peptides and metallopeptides were purified by reverse-phase HPLC.
HPLC separation. Reverse-phase HPLC was performed on a Shimadzu CBM-20A instrument with Phenomenex Jupiter 4μ Proteo 90A (250 × 15 mm preparative) and Phenomenex Jupiter 4μ Proteo 90A (250 × 4.6 mm analytical) columns. The columns were eluted with a gradient of acetonitrile in water (10-90%) (flow rates of 8 mL/min and 1 mL/min for preparative and analytical columns, respectively). Trifluoroacetic acid (0.1%) was added to all eluents.
FPLC separation. Analytical FPLC was performed on an ÄKTA instrument with Superdex Peptide PE 7.5/300 column. The column was equilibrated with buffer (150 mM NaCl, 50 mM Tris, pH 7.0) at flow rate of 0.2 mL/min.
ITC analysis. ITC experiments were carried out on a VP-ITC instrument (MicroCal) at 25 °C. Titrations of 275 μM peptide into 18 μM SH3 domain proteins were used for all titrations, except for the titration of S2ERh into Lyn SH3 domain, where the lower concentrations of 69 µM S2ERh peptide and 4 µM Lyn SH3 were used to attain a c-value for the titration within the accepted limts for ITC experiments ([…]).3
Heats of dilutions were measured independently for each experiment by titrating 275 μM peptide into buffer (20 mM phosphate buffer, pH 7, 150 mM NaCl, 1 mM EDTA). All experimental data were fitted using a one set of sites binding model in Origin software (MicroCal) except for the data with Hck SH3 domain. With Hck only, the non-peptide specific binding of dirhodium tetraacetate to Hck SH3 domain could not be treated as negligible, despite the very weak interaction (88 µM), due to the larger enthalpy contribution observed for non-specific binding to this SH3 domain, so the titrations of peptide into Hck were fitted using a 2 set of sites binding model where the stoichiometry for the second set of sites was fixed at 2.0. […]
Mass spectrometry. ESI-MS was performed on a Bruker Daltonics micrOTOF instrument.
Known compounds and proteins. Several metallopeptides (S2ERh, L3ERh, R5ERh, and 13DRh) were reported previously and were prepared by known protocols;4 alkyne-diazo 3,5 3-azido-7-hydroxycoumarin6 were synthesized following reported procedures; fyn, yes, lck, and src SH3 protein domains were prepared following published procedures.5 Abl, hck, and lyn SH3 domain plasmids were adapted from the previously reported genes;7 the gene templates were obtained from Addgene, ID

Substance | pKd [1] | Stoichiometry [2] | -TΔS ([2]; 25 °C) [kcal/mol] | pKd ([2]; 25 °C) | ΔG ([2]; 25 °C) [kcal/mol] | ΔH ([2]; 25 °C) [kcal/mol]
AcVELARRPLPPLPN-NH2 (Ac-VE(Rh2(OAc)3)LARRPLPPLPN-NH2; also: metal complex: Glu2 carboxylate bound to dirhodium(II) triacetate) [S2E^Rh, rhodium(II) metallopeptide made from S2E peptide (Ac…-NH2) and Rh2(tfa)(OAc)3] | 7.70 |  |  |  |  | 
AcVELARRPLPPLPN-NH2 [S2E^Rh] |  | 1.1 | 7.2 | 6.49 | -8.8 | -16.0
